The values below come from patent US9855230B2 (ViiV Healthcare UK (No. 5) Limited, priority 2014, dated 2018).

The test system of data set [1] is recombinant NL4-3 virus (nef section replaced with Renilla luciferase gene) in MT-2 cells. In words: whole plant or invertebrate. Particulars: NL43, luciferase activity in MT-2 cells infected 4-5 days with recombinant NL4-3 virus. The data set is classed as cell-based, HIV. The method, boiled down:
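Nef-deleted NL4-3 reporter virus carrying Renilla luciferase was used to infect MT-2 cells in the presence of serial compound dilutions. After 4-5 days of infection, antiviral activity was quantified from luciferase activity using a live-cell substrate.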

Data set [2] in a line: Compound cytotoxicity (CC50), XTT-based colorimetric assay. In kind it is cell-based. The conditions noted are these: human; uninfected MT2 cells, day 4, XTT assay. The procedure, abridged: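 Run under the antiviral-assay protocol but without virus. Viability was read on day 4 and CC50 values were derived from the readout.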

Where a name gives a salt, the structure may show the parent alone. Read-outs that look alike come from different tables or passages of the source. Bounds are passed on as bounds.

Regarding `COc1cccc(-n2ccnc2[C@H](Cc2ccccc2)NC(=O)NS(=O)(=O)c2ccccc2C)c1` [Example 9, (S)-N-((1-(1-(3-methoxyphenyl)-1H-imidazol-2-yl)-2-phenylethyl)carbamoyl)-2-methylbenzenesulfonamide], the EC50 in data set [1] (read-out: Activity) was less than 0.1 µM; in data set [1] (read-out: EC50), 0.05 µM. In addition, the CC50 (commonly the concentration at which the toxic effect on the cells reaches its halfway point) at 4 day in data set [2] was greater than 100 µM.
Take `O=C(N[C@H](Cc1cc(F)cc(F)c1)c1ncccc1-c1cccc(C(=O)NC2CC2)c1)NS(=O)(=O)c1ccccc1Cl` [Example 106, (R)-3-(2-(1-(3-((2-chlorophenyl)sulfonyl)ureido)-2-(3,5-difluorophenyl)ethyl)pyridin-3-yl)-N-cyclopropylbenzamide, TFA]: the EC50 in data set [1] (read-out: Activity) was greater than 1 µM. In addition, the 50% cytotoxic concentration (CC50) at 4 day in data set [2] is greater than 100 µM.
Consider `COc1ccc(-n2ccnc2[C@H](Cc2ccccc2)NC(=O)NS(=O)(=O)c2ccccc2Cl)cc1` [Example 6, (S)-2-chloro-N-((1-(1-(4-methoxyphenyl)-1H-imidazol-2-yl)-2-phenylethyl)carbamoyl)benzenesulfonamide], for which the EC50 is less than 0.1 µM in data set [1] (read-out: Activity) and 0.05 µM in data set [1] (read-out: EC50). For the same molecule, the CC50 at 4 day in data set [2] was greater than 100 µM.
For `CCOc1ccc(-n2ccnc2[C@H](Cc2ccccc2)NC(=O)NS(=O)(=O)c2ccccc2C)cc1Cl` [Example 26, (S)-N-((1-(1-(3-chloro-4-ethoxyphenyl)-1H-imidazol-2-yl)-2-phenylethyl)carbamoyl)-2-methylbenzenesulfonamide], the EC50 in data set [1] (read-out: Activity) is less than 0.1 µM. For the same molecule, the CC50 at 4 day in data set [2] is greater than 100 µM.
With `Cc1ccccc1S(=O)(=O)NC(=O)N[C@@H](Cc1cc(F)cc(F)c1)c1nccn1-c1ccc2c(c1)CCO2` [Example 82, (S)-N-((2-(3,5-difluorophenyl)-1-(1-(2,3-dihydrobenzofuran-5-yl)-1H-imidazol-2-yl)ethyl)carbamoyl)-2-methylbenzenesulfonamide], the EC50 in data set [1] (read-out: Activity) is 0.1 to 1 µM. Moreover, the half-maximal cytotoxic concentration (CC50) at 4 day in data set [2] was greater than 100 µM.
Turning to `Cc1ccccc1S(=O)(=O)NC(=O)N[C@@H](Cc1ccccc1)c1nccn1-c1ccccc1` [Example 31, (S)-2-methyl-N-((2-phenyl-1-(1-phenyl-1H-imidazol-2-yl)ethyl)carbamoyl)benzenesulfonamide], the EC50 in data set [1] (read-out: Activity) was 0.1 to 1 µM. In data set [2], the half-maximal cytotoxic concentration (CC50) at 4 day is greater than 100 µM.
As for `Cc1ccccc1S(=O)(=O)NC(=O)N[C@@H](Cc1cc(F)cc(F)c1)c1ncccc1-c1cccc(C(=O)OC(C)(C)C)c1` [Example 130, (S)-tert-butyl 3-(2-(2-(3,5-difluorophenyl)-1-(3-(o-tolylsulfonyl)ureido)ethyl)pyridin-3-yl)benzoate, TFA], in data set [1] (read-out: Activity), the EC50 was greater than 1 µM. The cytotoxic concentration (CC50) at 4 day in data set [2] is 53 µM.
In the case of `Cc1ccccc1S(=O)(=O)NC(=O)N[C@@H](Cc1ccccc1)c1nccn1-c1ccc2c(c1)ncn2C` [Example 66, (S)-2-methyl-N-((1-(1-(1-methyl-1H-benzo[d]imidazol-5-yl)-1H-imidazol-2-yl)-2-phenylethyl)carbamoyl)benzenesulfonamide], the EC50 in data set [1] (read-out: Activity) is 0.1 to 1 µM; in data set [1] (read-out: EC50), 0.34 µM. The same molecule gave a CC50 at 4 day in data set [2] greater than 100 µM.
`COC(=O)Nc1ccc(-n2ccnc2[C@H](Cc2ccccc2)NC(=O)NS(=O)(=O)c2c(F)cccc2F)cc1` [Example 50, (S)-methyl (4-(2-(1-(3-((2,6-difluorophenyl)sulfonyl)ureido)-2-phenylethyl)-1H-imidazol-1-yl)phenyl)carbamate]: in data set [1] (read-out: Activity), the EC50 was 0.1 to 1 µM. The molecule further came in with a CC50 at 4 day in data set [2] greater than 100 µM.
Take `Cc1ccccc1S(=O)(=O)NC(=O)N[C@@H](Cc1ccccc1)c1nccn1-c1cccc(Cl)c1` [Example 12, (S)-N-((1-(1-(3-chlorophenyl)-1H-imidazol-2-yl)-2-phenylethyl)carbamoyl)-2-methylbenzenesulfonamide]: the figures for the EC50 in data set [1] (read-out: Activity) and in data set [1] (read-out: EC50) were less than 0.1 µM and 0.05 µM, respectively. For the same molecule, in data set [2], the CC50 at 4 day is greater than 100 µM.
Regarding `Cc1ccccc1S(=O)(=O)NC(=O)N[C@@H](Cc1cc(F)cc(F)c1)c1ncccc1-c1ccc(F)c(C(=O)O)c1` [Example 131, (S)-5-(2-(2-(3,5-difluorophenyl)-1-(3-(o-tolylsulfonyl)ureido)ethyl)pyridin-3-yl)-2-fluorobenzoic Acid, TFA], the EC50 in data set [1] (read-out: Activity) was greater than 1 µM. Moreover, the CC50 at 4 day in data set [2] is greater than 100 µM.
As to `CC(=O)Nc1ccc(-n2ccnc2[C@H](Cc2ccccc2)NC(=O)NS(=O)(=O)c2ccccc2C)cc1` [Example 35, (S)-N-(4-(2-(2-phenyl-1-(3-(o-tolylsulfonyl)ureido)ethyl)-1H-imidazol-1-yl)phenyl)acetamide], the EC50 in data set [1] (read-out: Activity) was 0.1 to 1 µM. Also, the CC50 at 4 day in data set [2] was greater than 33 µM.
With `Cc1ccccc1S(=O)(=O)NC(=O)N[C@@H](Cc1ccccc1)c1nccn1-c1ccc2occc2c1` [Example 77, (S)-N-((1-(1-(benzofuran-5-yl)-1H-imidazol-2-yl)-2-phenylethyl)carbamoyl)-2-methylbenzenesulfonamide], the EC50 in data set [1] (read-out: Activity) is less than 0.1 µM. The CC50 at 4 day in data set [2] is greater than 100 µM.
For `CCOc1ccc(-n2ccnc2[C@H](Cc2ccccc2)NC(=O)NS(=O)(=O)c2ccccc2C)cc1` [Example 7, (S)-N-((1-(1-(4-ethoxyphenyl)-1H-imidazol-2-yl)-2-phenylethyl)carbamoyl)-2-methylbenzenesulfonamide], in data set [1] (read-out: Activity), the EC50 is less than 0.1 µM. In data set [2], the CC50 at 4 day is greater than 100 µM.
`COC(=O)Nc1ccc(-n2ccnc2[C@H](Cc2ccccc2)NC(=O)NS(=O)(=O)C(C)C)cc1` [Example 52, (S)-methyl (4-(2-(1-(3-(isopropylsulfonyl)ureido)-2-phenylethyl)-1H-imidazol-1-yl)phenyl)carbamate]: the EC50 in data set [1] (read-out: Activity) is 0.1 to 1 µM. In data set [2], this molecule came in with a CC50 at 4 day greater than 100 µM.
